“Also recorded” adds a separate entry of the source. Like-named read-outs stand apart in the source and are kept apart here.

The results in this text go back to patent publication US20220118159A1, “ANTIOXIDANT-RELEASING VITREOUS SUBSTITUTES AND USES THEREOF” (Ohio State Innovation Foundation, priority 2019, published 2022).

In data set [1] the test system is ARPE-19. As to the kind of experiment: CellTiter-Glo luminescent cell viability assay. On the procedure:
(§1) Cell Viability and ROS Activity Assays. ARPE-19 and LEC were seeded in 96-well plates at 1×10^4 cells per well in DMEM/F-12 and DMEM, respectively, supplemented with 10% FCS and 1% Pen Strep for 24 h at 37° C. in 5% CO2 humidified atmosphere. The hydrogels were submerged in 70% ethanol for 1 hour to sterilize, rinsed with deionized water 3 times for 1 hour each to remove the residual ethanol, and mixed well with serum-free and phenol red-free DMEM at a hydrogel concentration of 10% w/v (J. Chang, et al., J Mater Chem B. 2015, 3, 1097-1105; Y. Tao, et al., Acta Biomater. 2013, 9, 5022-5030; M. Annaka, et al., Biomacromolecules. 2011, 12, 4011-4021; and S. Lamponi, et al., J. Biomater. Sci. Polym. Ed. 2012, 23, 555-575). The culture medium in each well was removed and medium (100 μL) with/without hydrogel and with/without vitamin C (2.2 mM) was added to each well and incubated for 24 hours. Hydrogen peroxide (10 200 μM final concentration) was added to half of the wells, and DPBS (10 μL) was added to the remaining wells as a control (A. Heckelen, et al., Acta Ophthalmol Scand. 2004, 82, 564-568; and H. S. Lee, et al., Invest. Ophthalmol. Vis. Sci. 2017, 58, 1196-1207). The well plates were incubated for 30 minutes. CellTiter-Glo luminescent cell viability assay was conducted according to the manufacturer's protocol. Briefly, the well plates were equilibrated to room temperature for 30 minutes. CellTiter-Glo Reagent (100 μL) was added to each well, and the contents were mixed for 10 minutes using an orbital shaker. The well plates were incubated at room temperature for 10 minutes before the luminescent signal was measured using the Synergy HT multi-mode microplate reader. ROS activity was detected using DCF. Briefly, DCF (100 20 μM final concentration) was added to each well, and the contents were incubated at room temperature for 30 minutes (Y. Ou, et al., Chem Biol Interact. 2009, 179, 103-109). The fluorescence signal was measured with excitation and emission wavelengths of 485 and 525 nm, respectively, using a TECAN M200 Plate Reader (Männedorf, Switzerland).
(§2) Screening of Hydrogen Peroxide, Vitamin C, and Glutathione Concentrations Using a Cell Viability Assay: ARPE-19 and LEC were seeded in 96-well plates at 1×10^4 cells per well in DMEM/F-12 and DMEM, respectively, supplemented with 10% FCS and 1% Pen Strep for 24 h at 37° C. in 5% CO2 humidified atmosphere. The culture medium in each well was removed and various media with vitamin C (2000 μM, 1000 μM, 500 μM, 100 μM, and 0 μM) or glutathione (10000 μM, 4000 μM, 2000 μM, 1000 μM, 500 μM, and 0 μM) was added to each well (100 μL) and incubated for 24 hours. Hydrogen peroxide (600 μM, 400 μM, 200 μM, 100 μM, 50 μM, and 0 μM) and a special case of vitamin C (2000 μM) was added (100 μL) 30 minutes before performing the viability assays. CellTiter-Glo luminescent cell viability assay was conducted according to the manufacturer's protocol. Briefly, the well plates were equilibrated to room temperature for 30 minutes. CellTiter-Glo Reagent (100 μL) was added to each well, and the contents were mixed for 10 minutes using an orbital shaker.

The test system of data set [2] is LEC. As to the kind of experiment: CellTiter-Glo luminescent cell viability assay. On the procedure: as §1, §2
Data set [3] is described as follows: Vitamin C remaining (stability) study, absorbance at 265 nm.
Description: (§5) Chitosan (Sigma-Aldrich, low molecular weight, 1 mg/ml) was dissolved in acetic acid solution (1% w/w, 500 ml) for 60 min at 500 rpm. Sodium tripolyphosphate (1.75 mg/ml, 500 ml) was added dropwise into the chitosan solution to form nanoparticles over 2 hours. The nanoparticles were collected by centrifugation at 4000 rpm for 15 min at 21° C. The particles were washed with deionized water and again centrifuged. Vitamin C (10% w/w, 10 ml, pH 5.5) was added to the particles and equilibrated for 18 hours on an orbital shaker. Sodium alginate (FMC BioPolymer, Protanal PH, 1 mg/ml, 10 ml, pH 5.5) was added to the vitamin C and chitosan particle solution and sonicated for 30 min. Chitosan (Sigma-Aldrich, low molecular weight, 1 mg/ml in 1% w/w acetic acid solution, 10 ml) or gelatin (bloom 175, 1 mg/ml, 10 ml) was added to the vitamin c-chitosan-alginate particles and sonicated for 30 min. The particles were collected by centrifugation at 4000 rpm for 15 min at 21° C. and freeze dried. […] Concentration of vitamin C versus time was determined using methods as described elsewhere in the Examples.
(§6) Either the particle solutions or the chemically-stabilized Vitamin C solutions were incubated in the hydrogels at 37° C.
(§7) For each solution tested, a control group with no vitamin C and a test group with vitamin C (1% w/w) alone in DPBS were included. […] All solutions were kept at 37° C. throughout the release studies. The amount of viable vitamin C remaining in the solutions was measured using a Synergy HT multi-mode microplate reader (BioTek, Winooski, Vt.) at wavelength 265 nm and compared to the control groups to determine the amount of viable vitamin C left in the solutions. To measure the concentration of vitamin C, solutions with particles were centrifuged at 3220 rpm for 5 min and solution (500 uL) was removed and placed into a 96-well plate measured on days 0, 1, 2, 3, 4, 7, 8, 9, 10, 11, and 14. After two weeks, solutions with higher concentrations of vitamin C were measured every other day until vitamin C was undetectable. For the particle solutions, DPBS solutions (500 uL) was added back into the solution to maintain a constant volume.
Data set [4] is described as follows: Sodium ascorbate degradation and release from polyacrylamide hydrogels. Format: physicochemical. To be noted: PBS, lag time about 36 hours after making. On the procedure:
The 2 mM sodium ascorbate solutions in PBS, which was diluted 20× before measurement as previously described, show an exponential-like decay in concentration over time (note that the y-axis is plotted on a log scale). Additionally, its concentration at time 0 was 1.4 mM, not 2 mM as made, since there was a lag time between when the solutions were made and when the experiment started. This lag time (about 36 hours) was due to the delayed gelation time of polyacrylamide hydrogels. The polymer solutions with sodium ascorbate gelled within 18 hours. However, the polymer solutions without sodium ascorbate took twice as long to gel.
The gelled polyacrylamide hydrogels (1 ml) with or without sodium ascorbate were submerged in 10 ml of PBS. […] The 1 ml aliquots were measured without dilution, since the sodium ascorbate concentrations were already within the linear region of the standard curve.
The absorbance readings of the hydrogels without sodium ascorbate increase with time. Since there was no sodium ascorbate added to these hydrogels, the increase in absorbance could be due to the small pieces of polymer leached out from the hydrogel causing UV light interference. […] The absorbance readings of hydrogels without sodium ascorbate can be subtracted from the ones with sodium ascorbate to obtain the true absorbance reading due to the varying concentrations of sodium ascorbate.

The subject of data set [5] is ARPE-19. In words: ROS activity, DCF assay. The format is cell-based, human. On the procedure:
(§3) Cell Viability and ROS Activity Assays. […] The well plates were incubated for 30 minutes. […] ROS activity was detected using DCF. […] The fluorescence signal was measured with excitation and emission wavelengths of 485 and 525 nm, respectively, using a TECAN M200 Plate Reader (Männedorf, Switzerland).
(§4) Antioxidant Activity of Vitamin C in Reducing Reactive Oxygen Species (ROS) Activity Using DCF Assay: The ROS activity induced by hydrogen peroxide (200 μM for 30 minutes) of ARPE-19 and LEC treated with vitamin C (0, 100, and 1000 μM for 30 minutes or 24 hours) was determined using dichlorofluorescein assay. Briefly, LEC and ARPE-19 cells were cultured as aforementioned.

Data set [6] concerns LEC. As to the kind of experiment: ROS activity, DCF assay. The format is cell-based, human. As for the experimental part: as §3, §4
The conditions of data set [7]: 2 mM.
Description: as §5, §6, §7
[8] abbreviates: glutathione, all tested conditions up to 10000 μM, 24 hours.
The mark [9] stands for this setting: vitamin C 100 μM for 24 hours, H2O2 200 μM.
Where [10] appears, read: vitamin C 100 μM, after 24 hours, not treated with H2O2.
Where [11] appears, read: vitamin C 100 and 1000 μM for 30 minutes.
The mark [12] stands for this setting: Example 7: hydrogen peroxide 200 μM final, 30 minutes, vs non-treated.
[13] abbreviates: H2O2 200 μM and 400 μM, 30 minutes.
Where [14] appears, read: hydrogen peroxide 600 μM, 30 minutes.
Setting [15] is: hydrogen peroxide at or below 100 μM, 30 minutes.
Where [16] appears, read: hydrogen peroxide 200 μM, 30 minutes, compared to control.

As for `N[C@@H](CCC(=O)N[C@@H](CS)C(=O)NCC(=O)O)C(=O)O` [Glutathione, glutathione], the “change of cell viability” value is “increased” in data set [1] (glutathione concentration above 100 μM); “decreased” in data set [2] (glutathione 4000 μM and 10000). Besides, the cell viability entry in data set [1] (setting [8]) and in data set [2] (setting [8]) was “above 70%” each time. In data set [3] (particles, presence of glutathione (FIGS. 18-19)), the “maintenance of vitamin C concentrations” value was “improved maintenance of vitamin C concentrations”. Also, the “vitamin C remaining” value in data set [3] (past 14 days, glutathione 4-10 mM (FIG. 25)) is “More than half”.

Take `O=C1O[C@H]([C@@H](O)CO)C([O-])=C1O.[Na+]` [sodium ascorbate]: in data set [4], the “concentration of 2 mM sodium ascorbate solution at time 0” value worked out at 1400 µM.

`O=C1O[C@H]([C@@H](O)CO)C(O)=C1O` [Vitamin C, ascorbic acid]: the “reduction of ROS induced by hydrogen peroxide” value in data set [5] (setting [9]) and in data set [6] (setting [9]) was “not effective” in each case. The ROS activity entry in data set [5] (setting [10]) is on record as “returned to the same level as the control”; in data set [5] (vitamin C 1000 μM for 24 hours), “did not return to the normal control level”; in data set [5] (setting [11]), 15-30%; in data set [6] (setting [10]), “returned to the same level as the control”; in data set [6] (vitamin C 1000 μM for 24 hours with H2O2) it was “the same ROS activity as the no H2O2 no vitamin C control”; in data set [6] (setting [11]), 15-30%. Moreover, the “vitamin C remaining” value was determined as 10% in data set [7] (72 h) and 0% in data set [7] (5 days).

For `OO` [Hydrogen peroxide, hydrogen peroxide], the cell viability result in data set [1] (setting [12]) was “approximately the same or even higher”; in data set [1] (setting [13]), “had no effect”; in data set [1] (setting [14]), “significantly decreased cell viability”; in data set [1] (setting [15]) it was “did not affect cell viability”; in data set [2] (setting [12]), “statistically lower”; in data set [2] (setting [13]) it was “significantly decreased the cell viability”. Moreover, the cell viability entry is listed as “significantly decreased cell viability” in data set [2] (setting [14]) and “did not affect cell viability” in data set [2] (setting [15]). In addition, the ROS activity entry is reported as “did not affect; also recorded: did not significantly respond” in data set [5] (setting [16]) and “increased” in data set [6] (setting [16]). Further, the “increase in ROS activity” value in data set [6] (hydrogen peroxide 200 μM) was 1.5 times.
